Bridge positions count the residues as written; N and C are the ends. Square brackets hold non-standard residues; d marks the D form. Peptide text beside a SMILES is read from it. Hyp = O=C(O)[C@@H]1C[C@@H](O)CN1
Tests used:
[1] = Physical stability of peptide analogues (Thioflavin T fibrillation); type: physicochemical; conditions: maximum ThT signal normalized between hAMY maximum and buffer background; 40° C., shaking, four days; pH 7 per table title
Outline: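 ThT fluorescence (450 nm excitation, 480 nm emission; 4 μM dye) was read every 10 min over four days at 40° C under 700 rpm shaking stress, after 1 h in pH 4 acetate or pH 7 phosphate (50 mM). Peak smoothed signal expressed as percent, scaled between buffer background and hAMY maximum.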

[2] = target: hAM1 receptor (Homo sapiens, UniProt O60895+Q16602); test: cAMP assay for in vitro receptor activation, hAM1-R; type: cell-based; conditions: cAMP assay, hAM1 receptor; read-out: hAM1R EC50
Outline: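 Stable hAM1 cells (monoclonal) plated 8000/well; buffer DPBS, 0.05% casein, 0.5 mM IBMX; cAMP read-out.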

Sequence of hAM1 receptor (Q16602 23-461): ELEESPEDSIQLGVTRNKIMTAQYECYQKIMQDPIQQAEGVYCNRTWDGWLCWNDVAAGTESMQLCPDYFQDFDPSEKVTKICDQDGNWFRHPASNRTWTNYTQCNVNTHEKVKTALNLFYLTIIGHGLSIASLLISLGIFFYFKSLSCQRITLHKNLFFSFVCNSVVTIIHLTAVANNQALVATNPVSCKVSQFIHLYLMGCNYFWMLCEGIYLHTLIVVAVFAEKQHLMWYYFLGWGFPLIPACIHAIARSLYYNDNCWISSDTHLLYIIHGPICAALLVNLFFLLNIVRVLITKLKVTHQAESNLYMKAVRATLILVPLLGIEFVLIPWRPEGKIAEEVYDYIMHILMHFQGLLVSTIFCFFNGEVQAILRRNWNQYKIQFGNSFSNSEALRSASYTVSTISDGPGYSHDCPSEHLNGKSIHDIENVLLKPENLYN
Sequence of hAM1 receptor (O60895 43-175 partner): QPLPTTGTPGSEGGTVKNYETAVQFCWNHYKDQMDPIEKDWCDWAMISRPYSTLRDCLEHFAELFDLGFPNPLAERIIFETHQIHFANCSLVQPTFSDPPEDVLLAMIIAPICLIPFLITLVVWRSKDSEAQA

Row | Max ThT signal (%) [1] [%] | EC50 [2] [µM] | SMILES
1 | 0.500 | > 5 | CC[C@H](C)[C@H](NC(=O)[C@H](CCC(N)=O)NC(=O)[C@H](Cc1c[nH]cn1)NC(=O)[C@H](C)NC(=O)[C@H](CC(C)C)NC(=O)[C@H](CCCNC(=N)N)NC(=O)[C@H](CCC(N)=O)NC(=O)[C@@H](NC(=O)[C@@H](NC(=O)[C@@H]1CSSC[C@H](NC(=O)CN)C(=O)N[C@@H](CCCNC(=N)N)C(=O)N[C@@H]([C@@H](C)O)C(=O)NCC(=O)N[C@@H]([C@@H](C)O)C(=O)N1)[C@@H](C)O)C(C)C)C(=O)N[C@@H](C)C(=O)N[C@@H](CCC(N)=O)C(=O)N[C@@H](Cc1ccccc1)C(=O)N[C@H](C(=O)N[C@@H](CC(=O)O)C(=O)N[C@@H](CCCCN)C(=O)N[C@@H](Cc1ccccc1)C(=O)N[C@@H](CCCCN)C(=O)N[C@@H](CC(=O)O)C(=O)N[C@@H](CC(N)=O)C(=O)N[C@H](C(=O)N[C@@H](C)C(=O)N1CCC[C@H]1C(=O)N[C@@H](CCCNC(=N)N)C(=O)N[C@@H](CO)C(=O)N[C@@H](CCCCN)C(=O)N[C@H](C(=O)N[C@@H](CO)C(=O)N1CCC[C@H]1C(=O)N[C@@H](CCC(N)=O)C(=O)N[C@H](C(=O)N1C[C@H](O)C[C@H]1C(N)=O)[C@@H](C)O)[C@@H](C)CC)C(C)C)[C@@H](C)O [compound 196] (H-GCRTGTCTVQRLAHQIAQFTDKFKDNVAPRSKISPQT[Hyp]-NH2; disulfide 2-7; N-terminus assumed)
2 | 2.950 | > 5 | CC[C@H](C)[C@H](NC(=O)[C@H](CCC(N)=O)NC(=O)[C@H](Cc1c[nH]cn1)NC(=O)[C@H](C)NC(=O)[C@H](CC(C)C)NC(=O)[C@H](Cc1c[nH]c2ccccc12)NC(=O)[C@H](CCC(N)=O)NC(=O)[C@@H](NC(=O)[C@@H](NC(=O)[C@@H]1CSSC[C@H](NC(=O)[C@@H](N)CCCCN)C(=O)N[C@@H](CC(N)=O)C(=O)N[C@@H]([C@@H](C)O)C(=O)N[C@@H](C)C(=O)N[C@@H]([C@@H](C)O)C(=O)N1)[C@@H](C)O)C(C)C)C(=O)N[C@@H](Cc1ccc(O)cc1)C(=O)N[C@@H](CCC(N)=O)C(=O)N[C@@H](C)C(=O)N[C@H](C(=O)N[C@@H](CC(=O)O)C(=O)N[C@@H](CCCCN)C(=O)N[C@@H](CC(=O)O)C(=O)N[C@@H](CCCCN)C(=O)N[C@@H](CC(=O)O)C(=O)N[C@@H](CC(N)=O)C(=O)N[C@H](C(=O)N[C@@H](C)C(=O)N1CCC[C@H]1C(=O)N1CCC[C@H]1C(=O)N[C@H](C(=O)N[C@@H](CC(N)=O)C(=O)N[C@H](C(=O)NCC(=O)N[C@@H](CO)C(=O)N[C@@H](CC(N)=O)C(=O)NCC(=O)N1C[C@H](O)C[C@H]1C(N)=O)C(C)C)[C@@H](C)O)C(C)C)[C@@H](C)O [compound 338] (H-KCNTATCTVQWLAHQIYQATDKDKDNVAPPTNVGSNG[Hyp]-NH2; disulfide 2-7; N-terminus assumed)
3 | 1.250 | > 5 | CC[C@H](C)[C@H](NC(=O)[C@H](CC(N)=O)NC(=O)[C@@H](NC(=O)[C@H](CCCNC(=N)N)NC(=O)[C@@H]1CCCN1C(=O)[C@H](C)NC(=O)[C@@H](NC(=O)[C@H](CC(N)=O)NC(=O)[C@H](CC(=O)O)NC(=O)[C@H](CCCCN)NC(=O)[C@H](CC(=O)O)NC(=O)[C@H](CCCCN)NC(=O)[C@H](CC(=O)O)NC(=O)[C@@H](NC(=O)[C@H](Cc1ccccc1)NC(=O)[C@H](CCC(N)=O)NC(=O)[C@H](Cc1ccc(O)cc1)NC(=O)[C@@H](NC(=O)[C@H](CCC(N)=O)NC(=O)[C@H](Cc1c[nH]cn1)NC(=O)[C@H](C)NC(=O)[C@H](CC(C)C)NC(=O)[C@H](Cc1c[nH]c2ccccc12)NC(=O)[C@H](CCC(N)=O)NC(=O)[C@@H](NC(=O)[C@@H](NC(=O)[C@@H]1CSSC[C@H](NC(=O)CN)C(=O)N[C@@H](CCCNC(=N)N)C(=O)N[C@@H]([C@@H](C)O)C(=O)NCC(=O)N[C@@H]([C@@H](C)O)C(=O)N1)[C@@H](C)O)C(C)C)[C@@H](C)CC)[C@@H](C)O)C(C)C)[C@@H](C)O)C(=O)NCC(=O)N1CCC[C@H]1C(=O)N[C@@H](CCC(N)=O)C(=O)NCC(=O)N[C@@H](Cc1ccc(O)cc1)C(N)=O [compound 356] (H-GCRTGTCTVQWLAHQIYQFTDKDKDNVAPRTNIGPQGY-NH2; disulfide 2-7)

The remaining lines, values behind:

Row | SMILES | Max ThT signal (%) [1] [%] | EC50 [2] [µM]
4 | CC[C@H](C)[C@H](NC(=O)[C@H](CCC(N)=O)NC(=O)[C@H](Cc1c[nH]cn1)NC(=O)[C@H](C)NC(=O)[C@H](CC(C)C)NC(=O)[C@H](CCCNC(=N)N)NC(=O)[C@H](CCC(N)=O)NC(=O)[C@@H](NC(=O)[C@@H](NC(=O)[C@@H]1CSSC[C@H](NC(=O)CN)C(=O)N[C@@H](CCCNC(=N)N)C(=O)N[C@@H]([C@@H](C)O)C(=O)NCC(=O)N[C@@H]([C@@H](C)O)C(=O)N1)[C@@H](C)O)C(C)C)C(=O)N[C@@H](Cc1ccc(O)cc1)C(=O)N[C@@H](CCC(N)=O)C(=O)N[C@@H](Cc1ccccc1)C(=O)N[C@H](C(=O)N[C@@H](CC(N)=O)C(=O)N[C@@H](CCCCN)C(=O)N[C@@H](CC(=O)O)C(=O)N[C@@H](CCCCN)C(=O)N[C@@H](CC(=O)O)C(=O)N[C@@H](CC(N)=O)C(=O)N[C@H](C(=O)N[C@@H](C)C(=O)N1CCC[C@H]1C(=O)N[C@@H](CCCNC(=N)N)C(=O)N[C@@H](CO)C(=O)N[C@@H](CCCCN)C(=O)N[C@H](C(=O)N[C@@H](CO)C(=O)N1CCC[C@H]1C(=O)N[C@@H](CCC(N)=O)C(=O)N[C@@H](Cc1c[nH]cn1)C(=O)N1C[C@H](O)C[C@H]1C(N)=O)[C@@H](C)CC)C(C)C)[C@@H](C)O [compound 219] (H-GCRTGTCTVQRLAHQIYQFTNKDKDNVAPRSKISPQH[Hyp]-NH2; disulfide 2-7; N-terminus assumed) | 0.700 | 4.25
5 | CC[C@H](C)[C@H](NC(=O)[C@H](CCC(N)=O)NC(=O)[C@H](Cc1c[nH]cn1)NC(=O)[C@H](C)NC(=O)[C@H](CC(C)C)NC(=O)[C@H](Cc1c[nH]c2ccccc12)NC(=O)[C@H](CCC(N)=O)NC(=O)[C@@H](NC(=O)[C@@H](NC(=O)[C@@H]1CSSC[C@H](NC(=O)CN)C(=O)N[C@@H](CCCNC(=N)N)C(=O)N[C@@H]([C@@H](C)O)C(=O)NCC(=O)N[C@@H]([C@@H](C)O)C(=O)N1)[C@@H](C)O)C(C)C)C(=O)N[C@@H](Cc1ccc(O)cc1)C(=O)N[C@@H](CCC(N)=O)C(=O)N[C@@H](Cc1ccccc1)C(=O)N[C@H](C(=O)N[C@@H](CC(=O)O)C(=O)N[C@@H](CCCCN)C(=O)N[C@@H](CC(=O)O)C(=O)N[C@@H](CCCCN)C(=O)N[C@@H](CC(=O)O)C(=O)N[C@@H](CC(N)=O)C(=O)N[C@H](C(=O)N[C@@H](C)C(=O)N1CCC[C@H]1C(=O)N[C@@H](CCCNC(=N)N)C(=O)N[C@@H](CO)C(=O)N[C@@H](CCCCN)C(=O)N[C@H](C(=O)NCC(=O)N1CCC[C@H]1C(=O)N[C@@H](CCC(N)=O)C(=O)NCC(=O)N[C@@H](Cc1ccc(O)cc1)C(N)=O)C(C)C)C(C)C)[C@@H](C)O [compound 344] (H-GCRTGTCTVQWLAHQIYQFTDKDKDNVAPRSKVGPQGY-NH2; disulfide 2-7; N-terminus assumed) | 13.350 | > 5
6 | CC[C@H](C)[C@H](NC(=O)[C@H](CCC(N)=O)NC(=O)[C@H](Cc1c[nH]cn1)NC(=O)[C@H](C)NC(=O)[C@H](CC(C)C)NC(=O)[C@H](CCCNC(=N)N)NC(=O)[C@H](CCC(N)=O)NC(=O)[C@@H](NC(=O)[C@@H](NC(=O)[C@@H]1CSSC[C@H](NC(=O)CN)C(=O)N[C@@H](CCCNC(=N)N)C(=O)N[C@@H]([C@@H](C)O)C(=O)NCC(=O)N[C@@H]([C@@H](C)O)C(=O)N1)[C@@H](C)O)C(C)C)C(=O)N[C@@H](Cc1c[nH]cn1)C(=O)N[C@@H](CCC(N)=O)C(=O)N[C@@H](Cc1ccccc1)C(=O)N[C@H](C(=O)N[C@@H](CC(=O)O)C(=O)N[C@@H](CCCCN)C(=O)N[C@@H](Cc1ccccc1)C(=O)N[C@@H](CCCCN)C(=O)N[C@@H](CC(=O)O)C(=O)N[C@@H](CC(N)=O)C(=O)N[C@H](C(=O)N[C@@H](C)C(=O)N1CCC[C@H]1C(=O)N[C@@H](CCCNC(=N)N)C(=O)N[C@@H](CO)C(=O)N[C@@H](CCCCN)C(=O)N[C@H](C(=O)N[C@@H](CO)C(=O)N1CCC[C@H]1C(=O)N[C@@H](CCC(N)=O)C(=O)N[C@H](C(=O)N1C[C@H](O)C[C@H]1C(N)=O)[C@@H](C)O)[C@@H](C)CC)C(C)C)[C@@H](C)O [compound 193] (H-GCRTGTCTVQRLAHQIHQFTDKFKDNVAPRSKISPQT[Hyp]-NH2; disulfide 2-7; N-terminus assumed) | 2.700 | > 5
7 | CC[C@H](C)[C@H](NC(=O)[C@H](CCC(N)=O)NC(=O)[C@H](Cc1c[nH]cn1)NC(=O)[C@H](C)NC(=O)[C@H](CC(C)C)NC(=O)[C@H](CCCNC(=N)N)NC(=O)[C@H](CCC(N)=O)NC(=O)[C@@H](NC(=O)[C@@H](NC(=O)[C@@H]1CSSC[C@H](NC(=O)CN)C(=O)N[C@@H](CCCNC(=N)N)C(=O)N[C@@H]([C@@H](C)O)C(=O)NCC(=O)N[C@@H]([C@@H](C)O)C(=O)N1)[C@@H](C)O)C(C)C)C(=O)N[C@@H](Cc1ccc(O)cc1)C(=O)N[C@@H](CCC(N)=O)C(=O)N[C@@H](Cc1ccccc1)C(=O)N[C@H](C(=O)N[C@@H](CC(=O)O)C(=O)N[C@@H](CCCCN)C(=O)N[C@@H](Cc1ccccc1)C(=O)N[C@@H](CCCCN)C(=O)N[C@@H](CC(=O)O)C(=O)N[C@@H](CC(N)=O)C(=O)N[C@H](C(=O)N[C@@H](C)C(=O)N1CCC[C@H]1C(=O)N[C@@H](CCCNC(=N)N)C(=O)N[C@@H](CO)C(=O)N[C@@H](CCCCN)C(=O)N[C@H](C(=O)N[C@@H](CO)C(=O)N1CCC[C@H]1C(=O)N[C@@H](CCC(N)=O)C(=O)N[C@H](C(=O)N[C@@H](Cc1ccc(O)cc1)C(N)=O)[C@@H](C)O)[C@@H](C)CC)C(C)C)[C@@H](C)O [compound 230] (H-GCRTGTCTVQRLAHQIYQFTDKFKDNVAPRSKISPQTY-NH2; disulfide 2-7; N-terminus assumed) | 0.600 | > 5

Source: US12139520B2 (priority 2020, dated 2024)
